System: Puccinia recondita
Assay: Curative activity against Puccinia recondita on wheat (wheat leaf rust)
Format: in vivo, Puccinia recondita on wheat seedlings of the variety Kanzler
Details: sprayed 1 day after inoculation, rated after 7 days
Procedure: The active ingredients, separately or together, are formulated as a 10% emulsion in a mixture of 63% by weight of cyclohexanone and 27% by weight of emulsifier, and diluted with water to the desired concentration.
Evaluation is carried out by determining the infected leaf areas in percent. These percentages are converted into efficacies. The efficacy (w) is calculated as follows using Abbot's formula: […]
α corresponds to the fungal infection of the treated plants in % and β corresponds to the fungal infection of the untreated (control) plants in % An efficacy of 0 means that the infection level of the treated plants corresponds to that of the untreated control plants; an efficacy of 100 means that the treated plants were not infected.
The expected efficacies of the mixtures of the active ingredients were determined using Colby's formula [R. S. Colby, Weeds 15, 20-22 (1967)] and compared with the observed efficacies.
Colby's formula: E=x+y−x·y/100
E expected efficacy, expressed in % of the untreated control, when using the mixture of the active ingredients A and B at the concentrations a and b x efficacy, expressed in % of the untreated control, when using active ingredient A at a concentration of a y efficacy, expressed in % of the untreated control, when using active ingredient B at a concentration of b Leaves of potted wheat seedlings of the variety “Kanzler” were dusted with spores of leaf rust (Puccinia recondite). Thereafter, the pots were kept for 24 hours in a chamber of high atmospheric humidity (90 to 95%) and 20 to 22° C. During this time, the spores germinated and the germinal tubes penetrated into the leaf tissue. The next day, the infected plants were sprayed to runoff point with an aqeuous formulation of active ingredient prepared from a stock solution consisting of 10% of active ingredient, 63% of cyclohexanone and 27% of emulsifier. After the spray coating had dried on, the test plants were cultivated in a greenhouse at from 20 to 22° C. and from 65 to 70% of relative atmospheric humidity for 7 days. Thereafter, the extent of rust fungus development on the leaves was determined.

[1] = 50 ppm active ingredient in the spray liquor
[2] = 100 ppm active ingredient in the spray liquor

OC(c1ccc(Cl)cc1)(c1cncnc1)c1ccccc1Cl (racemic) [Compound II, (±)-(2-Chlorophenyl)(4-chlorophenyl)(pyrimidin-5-yl)methanol, reference compound]
Efficacy in % of the untreated control (10 ppm active ingredient in the spray liquor): 10%
Efficacy in % of the untreated control (20 ppm active ingredient in the spray liquor): 20%

O=C(Nc1ccccc1-c1ccc(F)cc1)c1cccnc1Cl [Compound I.1]
Efficacy in % of the untreated control [1]: 0%
Efficacy in % of the untreated control [2]: 0%
Efficacy in % of the untreated control (200 ppm active ingredient in the spray liquor): 0%

O=C(Nc1ccccc1-c1ccc(Cl)cc1)c1cccnc1Cl [Compound I.2]
Efficacy in % of the untreated control [1]: 0%
Efficacy in % of the untreated control [2]: 30%

Reference: patent US6372748B1, “Fungicide mixtures based on pyridine amides and fenarimol” (BASF Aktiengesellschaft, priority 1997, dated 2002)
